Experimental data published in patent US6395723B2, “Method of providing coginition enhancement with 5α-pregnan-3β-ol-20-one sulfate” (Wyeth, priority 1997, dated 2002).
Where a name gives a salt, the structure may show the parent alone. Blank lines part the entries; values can stand above or below the molecule they belong to.

Columns and labels:
Assay type in all cases: cell-based
[1] = test system: potassium channel currents; experiment: Whole cell recording of potassium currents from cultured hippocampal neurons; settings: 2 μM, p=0.0006
Description: (§1) The neuroprotective and cognition enhancing effects of the compounds of this invention were evaluated in an in vitro standard pharmacological test procedure which measured the effects of 5α-pregnan-3β-ol-20-one 3-sulfate ester sodium salt, as a representative compound of this invention, on calcium and potassium channel currents. Briefly, the following procedure was used.
(§2) Whole cell recording techniques were used to record calcium and potassium currents from cultured hippocampal neurons. The compounds to be evaluated were made fresh each day in a 400 μM ethanol stock solution. The test compounds were diluted in saline to obtain a final concentration of 2 μM. The amplitude of calcium or potassium currents in control, test compound, and washout solutions was measured from at least 10 current traces for each condition. To compensate for rundown of the calcium current with time, control and washout currents were averaged. The current amplitude with drug was divided by the averaged control and washout current to determine the percent change. The means, standard deviations and errors for each test compound were calculated and significance from control was determined using the paired T-Test.

calcium channel currents = experiment: Whole cell recording of calcium currents from cultured hippocampal neurons; settings: 2 μM, p=0.044
Description: as §1, §2

progesterone receptors = target: T1, progesterone receptors (Homo sapiens, UniProt P06401); experiment: Stimulation of alkaline phosphatase enzyme activity in T47D cells (progestational activity); settings: for concentrations required for activity (alkaline phosphatase induction): T47D cells, reference progestins
T1 construct: endogenous in cells; host or cells: T47D human breast cancer cells
T1 sequence (P06401 1-933): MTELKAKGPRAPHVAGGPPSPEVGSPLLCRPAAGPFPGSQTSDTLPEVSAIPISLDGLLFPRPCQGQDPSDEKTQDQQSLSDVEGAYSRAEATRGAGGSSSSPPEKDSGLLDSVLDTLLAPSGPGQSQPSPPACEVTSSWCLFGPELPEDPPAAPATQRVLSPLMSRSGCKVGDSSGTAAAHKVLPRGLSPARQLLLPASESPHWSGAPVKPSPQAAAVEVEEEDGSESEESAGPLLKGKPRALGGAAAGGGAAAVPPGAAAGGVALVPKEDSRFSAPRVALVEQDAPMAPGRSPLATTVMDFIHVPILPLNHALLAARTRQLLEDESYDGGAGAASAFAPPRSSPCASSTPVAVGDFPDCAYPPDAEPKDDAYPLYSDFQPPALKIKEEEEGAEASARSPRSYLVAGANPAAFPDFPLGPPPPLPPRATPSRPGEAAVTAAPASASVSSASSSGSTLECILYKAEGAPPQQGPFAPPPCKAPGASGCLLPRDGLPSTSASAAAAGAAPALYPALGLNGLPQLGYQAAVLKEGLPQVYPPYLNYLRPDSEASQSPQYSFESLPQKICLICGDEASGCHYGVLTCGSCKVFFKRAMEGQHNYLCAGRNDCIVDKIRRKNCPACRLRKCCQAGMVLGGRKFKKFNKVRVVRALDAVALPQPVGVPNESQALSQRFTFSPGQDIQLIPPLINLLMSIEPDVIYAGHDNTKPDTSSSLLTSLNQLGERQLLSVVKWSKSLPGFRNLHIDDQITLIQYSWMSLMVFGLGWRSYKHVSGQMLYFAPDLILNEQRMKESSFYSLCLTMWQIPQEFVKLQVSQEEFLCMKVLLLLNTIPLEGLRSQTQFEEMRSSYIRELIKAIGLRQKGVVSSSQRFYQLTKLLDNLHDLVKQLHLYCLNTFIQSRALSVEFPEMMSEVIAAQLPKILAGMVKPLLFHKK
From the text: In this test procedure, the progestational activity of a compound is quantified based on its stimulation of alkaline phosphatase enzyme activity in T47D cells, a human breast cancer cell line which expresses high levels of progesterone receptors. This is a well established test procedure in which both the progestin receptors and the response stimulated by activated progestin receptors are endogenous to the cells. Cells are pre-conditioned in low serum medium for one day and then treated with test compounds.

Structure (SMILES): CC(O)C1CCC2C3CCC4CC(O)CCC4(C)C3CCC12C (stereo not drawn) [5α-Pregnan-3β,20β-diol]
increase of potassium channel currents versus control [1]: 21.76±2.40%

Structure (SMILES): CC(=O)[C@H]1CC[C@H]2[C@@H]3CC[C@H]4C[C@@H](OS(=O)(=O)O)CC[C@]4(C)[C@H]3CC[C@]12C [5α-pregnan-3β-ol-20-one 3-sulfate ester sodium salt]
decrease of calcium channel currents versus control (calcium channel currents): 4.64±1.64%
IC50 (progesterone receptors): 5 µM

concentrations required for activity (alkaline phosphatase induction) (progesterone receptors): low nanomolar
Structure (SMILES): CC(=O)[C@H]1CC[C@H]2[C@@H]3CCC4=CC(=O)CC[C@]4(C)[C@H]3CC[C@]12C [progesterone]

concentrations required for activity (alkaline phosphatase induction) (progesterone receptors): low nanomolar
Structure (SMILES): CC(=O)O[C@]1(C(C)=O)CC[C@H]2[C@@H]3C[C@H](C)C4=CC(=O)CC[C@]4(C)[C@H]3CC[C@@]21C [medroxyprogesterone acetate]
